Source: the Deep4Chem optical property database
One block for each compound: values may come before it.

Experiment: solvent given as SMILES

SMILES: COc1ccc(/C=C/c2ccccc2)cc1OC
emission maximum (in C1CCCCC1): 372 nm
emission maximum (in CC#N): 385 nm
emission maximum (in CC(C)O): 374 nm
emission maximum (in CCCCOCCCC): 375 nm
emission maximum (in CCOC(C)=O): 382 nm
emission maximum (in CCOCC): 373 nm

emission maximum (in C1CCOC1): 597 nm
SMILES: F[B-]1(F)n2c(-c3ccccc3)cc(-c3ccccc3)c2C(c2ccccc2)=C2C(c3ccccc3)=CC(c3ccccc3)=[N+]21

emission maximum (in CCO): 460 nm
SMILES: COc1ccc(C(=O)COc2c(C)c(=O)n3c(=O)c(C)c(COC(=O)c4ccccc4Cl)n23)cc1

emission maximum (in ClCCl): 415 nm
SMILES: CC(=O)c1c(N[C@@H](Cc2ccc(O)cc2)C(=O)O)c2ccc(N(C)C)cc2oc1=O

emission maximum (in ClC(Cl)Cl): 361 nm
SMILES: CCCCCCCCC1(CCCCCCCC)c2cc(-c3ccccc3)ccc2-c2ccc(-c3ccccc3)cc21

emission maximum (in C1COCCO1): 723 nm
emission maximum (in CCO): 711 nm
emission maximum (in CN(C)C=O): 717 nm
emission maximum (in ClC(Cl)Cl): 724 nm
SMILES: CCCCCCCN1C(=CC2=C([O-])C(=Cc3sc4ccccc4[n+]3CCCCCCC)C2=C(C#N)C#N)Sc2ccccc21

emission maximum (in C1CCOC1): 424 nm
SMILES: O=c1oc2cccc3c4cccc5ccc6c7cc(F)ccc7c1c(c23)c6c54

emission maximum (in CC#N): 460 nm
SMILES: Fc1nc(F)c(F)c(C#Cc2cc3c(cc2C#Cc2c(F)c(F)nc(F)c2F)OC2(CCCCC2)O3)c1F

SMILES: CCCCCCCCCCCCCCCCCCN1C(=O)c2cccc3c(OCCN(C)C)ccc(c23)C1=O
emission maximum (in CC#N): 514 nm
emission maximum (in CC(C)=O): 507 nm
emission maximum (in CCO): 510 nm
emission maximum (in CCOC(C)=O): 497 nm
emission maximum (in CCOCC): 492 nm
emission maximum (in CN(C)C=O): 516 nm
emission maximum (in ClCCl): 502 nm

emission maximum (in ClCCl): 526 nm
SMILES: Fc1ccccc1-c1c2cc(Cl)ccc2nc2cc3ccccc3cc12

SMILES: c1ccc(-c2nc(-c3ccccc3)nc(-c3ccc(-n4c5ccc(-n6c7ccccc7c7ccccc76)cc5c5ccc6c(c7ccccc7n6-c6ccccc6)c54)cc3)n2)cc1
emission maximum (in Cc1ccccc1): 463.87 nm

emission maximum (in ClCCl): 409 nm
SMILES: COc1ccc(-c2cc3c(ccc4sc5ccc6sccc6c5c43)s2)cc1

emission maximum (in ClCCl): 358 nm
SMILES: c1ccc(-n2nc(-c3ccc(-c4ccc5c(c4)C(c4ccccc4)(c4ccccc4)c4ccccc4-5)cc3)nc2-c2ccccn2)cc1

emission maximum (in C1CCOC1): 418 nm
emission maximum (in C1COCCO1): 420 nm
emission maximum (in CC#N): 422 nm
emission maximum (in CCCCCO): 432 nm
emission maximum (in CCCCO): 431 nm
emission maximum (in CCCO): 430 nm
emission maximum (in CCO): 432 nm
emission maximum (in CO): 432 nm
emission maximum (in COCCOC): 420 nm
emission maximum (in ClC(Cl)Cl): 428 nm
emission maximum (in ClCCl): 422 nm
emission maximum (in OCCO): 418 nm
SMILES: COC(=O)c1c2ccccc2nc2ccccc12

emission maximum (in CCO): 568 nm
emission maximum (in O): 565 nm
SMILES: CN(C)c1ccc2cc3ccc(=[N+](C)C)cc-3oc2c1

emission maximum (in CO): 830 nm
SMILES: O=S(=O)([O-])CCCCN1C=C/C(=C/C=C/C=C/c2cc[n+](CCCCS(=O)(=O)[O-])c3ccccc23)c2ccccc21

emission maximum (in CC#N): 551 nm
emission maximum (in CN(C)C=O): 599 nm
emission maximum (in ClCCl): 568 nm
SMILES: CCN(CC)c1ccc(/C=N/c2cc3nc4ccccc4nc3cc2/N=C/c2ccc(N(CC)CC)cc2O)c(O)c1

emission maximum (in ClCCl): 599 nm
SMILES: CN(C)c1ccc(C2=CC3=C(c4ccc(C#N)cc4)[C@H]4c5ccccc5[C@]3(S2)c2ccccc24)cc1

emission maximum (in CC#N): 580 nm
emission maximum (in ClCCl): 578 nm
SMILES: CCN(CC)c1ccc(/N=N/c2nc3ccc(Br)cc3s2)cc1

SMILES: Cc1nc2c(c[n+]1C)CN1C(=O)N([C@H]3O[C@@H](CO)[C@H](O)[C@@H]3O)C=CC1=N2
emission maximum (in CC#N): 416 nm
emission maximum (in CC(C)=O): 418 nm
emission maximum (in CCCCO): 417 nm
emission maximum (in CCCO): 417 nm
emission maximum (in CCO): 417 nm
emission maximum (in CO): 417 nm
emission maximum (in O): 414 nm
emission maximum (in [2H]OC): 417 nm
emission maximum (in [2H]OCC): 417 nm
emission maximum (in [2H]O[2H]): 414 nm

emission maximum (in C1CCCCC1): 444 nm
emission maximum (in C1CCOC1): 540 nm
emission maximum (in CC#N): 573 nm
emission maximum (in CS(C)=O): 583 nm
emission maximum (in ClCCl): 560 nm
SMILES: CN(C)c1ccc(C#Cc2ncnc3ccccc23)cc1

SMILES: CC(C)(C)c1ccc(-c2nc3c4ccc(-c5cccc6ccccc56)cc4c4cc(-c5cccc6ccccc56)ccc4c3n2-c2ccc(C(C)(C)C)cc2)cc1
emission maximum (in C1CCOC1): 386 nm
emission maximum (in C1COCCO1): 385 nm
emission maximum (in CC#N): 391 nm
emission maximum (in CCCCCC): 381 nm
emission maximum (in CCCCOCCCC): 383 nm
emission maximum (in CCN(CC)CC): 382 nm
emission maximum (in CCOC(C)=O): 385 nm
emission maximum (in CCOCC): 382 nm
emission maximum (in CN(C)C=O): 394 nm
emission maximum (in Cc1ccccc1): 385 nm
emission maximum (in ClC=C(Cl)Cl): 386 nm
emission maximum (in ClCCl): 388 nm

emission maximum (in c1cc(-c2cccc(-n3c4ccccc4c4ccccc43)c2)cc(-n2c3ccccc3c3ccccc32)c1): 469 nm
SMILES: c1ccc(-c2nc(-c3ccccc3)nc(-c3ccc(-c4ccc5c(c4)C4(c6ccccc6-c6ccccc64)c4cc(-c6ccc(-c7nc(-c8ccccc8)nc(-c8ccccc8)n7)cc6)ccc4N5c4ccccc4)cc3)n2)cc1

emission maximum (in ClCCl): 608 nm
SMILES: CCCCCCC1(CCCCCC)c2cc(-c3ccc(-c4ccc(-c5ccc(-c6ccc7c(c6)C(CCCCCC)(CCCCCC)c6cc(-n8c9ccc(-n%10c%11ccccc%11c%11ccccc%11%10)cc9c9cc(-n%10c%11ccccc%11c%11ccccc%11%10)ccc98)ccc6-7)s5)c5nsnc45)s3)ccc2-c2ccc(-n3c4ccc(-n5c6ccccc6c6ccccc65)cc4c4cc(-n5c6ccccc6c6ccccc65)ccc43)cc21

emission maximum (in C1CCOC1): 413 nm
SMILES: c1ccc2c(c1)c1ccccc1n2-c1ccc(-c2ccn3nc(-c4ccc(-n5c6ccccc6c6ccccc65)cc4)nc3c2)cc1

SMILES: O=S(=O)(c1cccc(N2c3ccccc3Sc3ccccc32)c1)c1cccc(N2c3ccccc3Sc3ccccc32)c1
emission maximum (in C1CCOC1): 596 nm
emission maximum (in CCCCC(CC)n1c2ccc(-n3c4ccccc4c4ccccc43)cc2c2cc(-n3c4ccccc4c4ccccc43)ccc21): 554.57 nm
emission maximum (in Cc1ccccc1): 561 nm
emission maximum (in ClC(Cl)Cl): 579 nm
emission maximum (in c1cc(-n2c3ccccc3c3ccccc32)cc(-n2c3ccccc3c3ccccc32)c1): 550.83 nm

SMILES: c1ccc2c(c1)ccc1ccccc12
emission maximum (in Cc1ccccc1): 350 nm

emission maximum (in C1CCCCC1): 383 nm
emission maximum (in CC#N): 388 nm
emission maximum (in CO): 394 nm
SMILES: Cc1cc(C)c(C)c(-c2ccc3cc(C)c(=O)oc3c2)c1C

SMILES: CC1CCC(O)(c2ccc(-c3cccs3)s2)CC1 (centres undefined)
emission maximum (in C1CCOC1): 412 nm
emission maximum (in CC#N): 405 nm
emission maximum (in CCCCCC): 408 nm
emission maximum (in CCO): 406 nm
emission maximum (in OCCOCCO): 414 nm
emission maximum (in c1ccncc1): 416 nm

emission maximum (in CC#N): 589 nm
SMILES: CC1=C(/C=C/c2ccccc2)C2=Cc3c(/C=C/c4ccccc4)c(C)c(C)n3[B-](F)(F)[N+]2=C1C

emission maximum (in ClC(Cl)Cl): 519.7 nm
SMILES: CC1=CC(C)=[N+]2C1=C(c1ccc(I)cc1)c1c(C)cc(C)n1[B-]2(Oc1ccc(Cl)cc1)Oc1ccc(Cl)cc1

emission maximum (in CC#N): 478 nm
SMILES: CC(C)c1ccc(-c2nc(-c3ccccc3)c3ccccn23)cc1

emission maximum (in C1CCCCC1): 400 nm
emission maximum (in C1CCOC1): 406 nm
emission maximum (in C1COCCO1): 405 nm
emission maximum (in CC#N): 411 nm
emission maximum (in CC(C)(C)O): 410 nm
emission maximum (in CC(C)O): 412 nm
emission maximum (in CCCCCC): 399 nm
emission maximum (in CCCCO): 414 nm
emission maximum (in CCO): 414 nm
emission maximum (in CCOC(C)=O): 405 nm
emission maximum (in CN(C)C=O): 409 nm
emission maximum (in CO): 416 nm
emission maximum (in CS(C)=O): 415 nm
emission maximum (in ClC(Cl)Cl): 401 nm
emission maximum (in ClCCl): 412 nm
emission maximum (in O): 452 nm
emission maximum (in OCCO): 421 nm
SMILES: Cc1cc(O)c(C(C)C)cc1/N=C/c1ccc(O)cc1

emission maximum (in C1CCOC1): 498 nm
SMILES: Cc1cc(C)c([B-]2(c3c(C)cc(C)cc3C)[O+]=P(c3ccccc3)(c3ccccc3)c3cc(C#Cc4ccccc4)sc3-c3sc(C#Cc4ccccc4)cc32)c(C)c1

emission maximum (in ClC(Cl)Cl): 431 nm
SMILES: CCC1(CC)c2cc(-c3ccc(N(c4ccc(-c5ccc6c(c5)C(CC)(CC)c5cc(N7c8ccccc8C(C)(C)c8ccccc87)ccc5-6)cc4)c4ccc(-c5ccc6c(c5)C(CC)(CC)c5cc(N7c8ccccc8C(C)(C)c8ccccc87)ccc5-6)cc4)cc3)ccc2-c2ccc(N3c4ccccc4C(C)(C)c4ccccc43)cc21

emission maximum (in C1CCOC1): 529 nm
emission maximum (in CC#N): 538 nm
emission maximum (in CCO): 532 nm
emission maximum (in CCOC(C)=O): 526 nm
emission maximum (in ClCCl): 528 nm
emission maximum (in c1ccccc1): 511 nm
SMILES: CC1(C)CC(/C=C/c2ccc(-n3cccn3)cc2)=CC(=C(C#N)C#N)C1

SMILES: C(=C\c1nc2ccccc2[nH]1)/c1ccc(/C=C/c2nc3ccccc3[nH]2)cc1
emission maximum (in C1CCOC1): 428 nm
emission maximum (in CC#N): 427 nm
emission maximum (in CC(C)=O): 427 nm
emission maximum (in CN(C)C=O): 433 nm
emission maximum (in CO): 422 nm
emission maximum (in CS(C)=O): 439 nm

SMILES: c1ccc(N(c2ccccc2)c2ccc3ccc4c(N(c5ccccc5)c5ccccc5)ccc5ccc2c3c54)cc1
emission maximum (in Cc1ccccc1): 458 nm
emission maximum (in ClCCl): 472 nm

emission maximum (in C1COCCO1): 357 nm
emission maximum (in CC#N): 358 nm
emission maximum (in CC(C)O): 360 nm
emission maximum (in CCCCO): 361 nm
emission maximum (in CCO): 360 nm
emission maximum (in CCOC(C)=O): 354 nm
emission maximum (in CN(C)C=O): 366 nm
emission maximum (in CO): 361 nm
emission maximum (in CS(C)=O): 370 nm
SMILES: O=S(=O)([O-])c1ccc(O)c2ccccc12

emission maximum (in CC#N): 654 nm
emission maximum (in CCO): 650 nm
emission maximum (in ClCCl): 645 nm
emission maximum (in O): 660 nm
SMILES: C=CCNc1ccc2c(ccc3oc4cc(=[N+](C)C)ccc-4nc32)c1

emission maximum (in ClCCl): 602 nm
SMILES: CC1=C(C#Cc2ccc(B(c3c(C)cc(C)cc3C)c3c(C)cc(C)cc3C)cc2)C(C)=[N+]2C1=C(c1ccccc1)c1c(C)c(C#Cc3ccc(B(c4c(C)cc(C)cc4C)c4c(C)cc(C)cc4C)cc3)c(C)n1[B-]2(F)F

emission maximum (in C1CCOC1): 385 nm
SMILES: CCC1(CC)c2cc(-c3cccs3)ccc2-c2c1c1c(c3c2C(CC)(CC)c2cc(-c4cccs4)ccc2-3)C(CC)(CC)c2cc(-c3cccs3)ccc2-1
